Reference: patent US9328163B2, “Post-translationally modified neurotrophin antibodies” (INSTITUT PASTEUR, priority 2006, dated 2016)

Legend:
[1] = test system: motor neurons; assay: Purified motor neuron cultures, motor neuron survival by direct counting; format: cell-based, rat; conditions: for induction of motor neuron death: BSA 100 ng/mL, FGF-1 or FGF-2 10 ng/mL previously treated with peroxynitrite 1 mM
Protocol: Media and sera were purchased from Gibco-Invitrogen. Motor neuron cultures were prepared from embryonic day 15 (E15) rat spinal cord by a combination of metrizamide gradient centrifugation and immunopanning with a monoclonal antibody directed against rat p 75^NTR (mouse mAb Ig192) as previously described. Motor neurons were plated at a density of 350 cells/cm^2 on 4 well multidishes (Nunclon) precoated with polyornithine-laminin. Cultures were maintained in Neurobasal™ medium supplemented with 2% horse serum, […] L-glutamate, 25 μM 2-mercaptoethanol, 0.5 mM L-glutamine, and 2% B-27 supplement (Gibco-Invitrogen). Motor neuron survival was maintained by the addition of GDNF (1 ng/mL; Sigma) to the culture media. Motor neuron death induced by trophic factor deprivation (NONE, without GDNF) was determined in all experiments as a control, and never was greater than 50%. Treatments with the different reagents were performed 3 hours after motor neuron plating. Motor neuron survival was assessed after 48 hours by direct counting of all cells displaying intact neurites longer than 4-cell bodies in diameter, in a prefixed area of the dish.
(§1) Treatment with antisense oligonucleotides to down-regulate p75^NTR expression was performed as described previously. Briefly, HPLC-purified phosphorothioate antisense and missense oligonucleotides (5 μM; Integrated DNA Technologies) were added to the cell suspension of purified motor neurons and repeatedly pipetted before seeding. The oligonucleotides were present the whole time of culture. To determine the efficiency of uptake, cultures were incubated with p75^NTR antisense oligonucleotides with a 5′ 56-FAM fluorescent label. Cells were transferred to the heated stage (37° C.) of a Zeiss LSM510 confocal microscope with constant 5% CO2. Fluorescence was imaged with a 63× oil immersion objective. Uptake efficiency was >96% in all experiments. Sequences used were: p75^NTR antisense, 5′-ACCTGCCCTCCTCATTGCA-3′ (SEQ ID NO: 5) and p 75^NTR missense, 5′-CTCCCACTCGTCATTCGAC-3′ (SEQ ID NO: 6).

[2] = test system: NGF; assay: Tyrosine nitration and oligomerization of NGF by peroxynitrite (SDS-PAGE, Western blot anti-nitrotyrosine); format: biochemical, mouse; conditions: urate 20 to 1000 μM; peroxynitrite 1 mM
Protocol: Peroxynitrite concentration was determined spectrophotometrically at 302 nm (ε=1,670 M^−1 cm^−1). Diluted stock solutions were freshly prepared in 0.01 M NaOH. The reactions of NGF (Harlan; Indianapolis, USA) with different concentrations of peroxynitrite (0.25 mM to 2 mM) was performed at a protein concentration of 0.2 mg/mL to 1.0 mg/mL obtaining similar results. The reaction was performed in 50 mM sodium phosphate buffer, pH 7.4, containing 20 mM sodium bicarbonate. NGF was subjected to 10 bolus addition of peroxynitrite (1 μL each) to reach the desired final concentration of peroxynitrite. One bolus of peroxynitrite stock solution was rapidly added on the top of the test tube and mixed by vortexing for 3 sec. The procedure was repeated 10 times. To exclude a potential non-specific effect of peroxynitrite treatment because of pH changes or contaminants, control experiments were performed using diluted NaOH or decomposed peroxynitrite (reverse order addition, ROA). Treatment of bovine serum albumin (Sigma), FGF-1 (Sigma) and FGF-2 (R&D Systems) with peroxynitrite was performed as described above at a concentration of 0.2 mg/mL.
SDS-PAGE was performed in 15% polyacrylamide minigels under reducing conditions. Samples were boiled for 5 min in LaemLi buffer before running. Proteins were visualized by Coomassie Blue or Silver staining. […]

[3] = test system: purified motor neurons; assay: Uptake of fluorescently labelled antisense oligonucleotides (confocal microscopy); format: cell-based, rat; conditions: antisense oligonucleotides with 5′ 56-FAM fluorescent label; all experiments
Protocol: as §1

[4] = test system: Dorsal root ganglia explants; assay: Neurite outgrowth from dorsal root ganglia explants (GAP-43 immunofluorescence); format: cell-based; conditions: 100 ng/mL; 24 hours; E15 rat embryo ganglia
Protocol: Dorsal root ganglia explants from E15 rat embryos (that express both TrkA and p75^NTR) were cultured in Neurobasal media in the absence of trophic factors (NONE) or in the presence of NGF (100 ng/mL), NGF treated with peroxynitrite (100 ng/mL; nitroNGF-P) or NGF treated with tetranitromethane (nitroNGF-TNM). After 24 hours cultures were fixed with 4% paraformaldehyde and processed for immunofluorescence against GAP-43.

[5] = cultures maintained with GDNF (1 ng/mL), no exogenous nitric oxide, 48 h

In the case of COC(=O)CC[C@H](NC(=O)[C@H](CC(=O)OC)NC(=O)OCc1ccccc1)C(=O)N[C@H](C(=O)N[C@@H](CC(=O)OC)C(=O)CF)C(C)C [DEVD-fmk], the “effect on motor neuron loss induced by peroxynitrite-treated NGF” value (from here on “effect on motor neuron loss induced”) ([1]; DEVD-fmk 10 μM added every 24 hours, NGF-ONOO^− 100 ng/mL, 48 h) is reported as “blocked”.

For COC(=O)[C@@H](N)CCCNC(=N)N[N+](=O)[O-] [L-NAME], the “effect on motor neuron loss induced” value ([1]; L-NAME 1 mM, NGF-ONOO^− 100 ng/mL, 48 h) was “prevented”.

With O=C(O)c1ccc(/C2=C3\C=CC(=N3)/C(c3ccc(C(=O)O)cc3)=c3/cc/c4[n]3[Mn]([Cl])[n]3c2ccc3/C(c2ccc(C(=O)O)cc2)=C2/C=CC(=N2)\C=4c2ccc(C(=O)O)cc2)cc1 [MnTBAP] the “effect on motor neuron loss induced” value ([1]; MnTBAP 100 μM, NGF-ONOO^− 100 ng/mL, 48 h) was “prevented”.

For Oc1nc(O)c2nc(O)[nH]c2n1 [urate], the “effect on tyrosine nitration and oligomerization of NGF” value [2] was “prevented tyrosine nitration and oligomerization of NGF in a dose dependent manner”, the “effect on motor neuron loss induced” value ([1]; urate 100 nM added to culture, NGF-ONOO^− 100 ng/mL, 48 h) was “did not prevent motor neuron loss” and the “effect on apoptotic activity of peroxynitrite-treated NGF” value ([1]; urate 200 μM present during peroxynitrite (1 mM) treatment of NGF, NGF 100 ng/mL, 48 h) was “abolished the apoptotic effect”.

In the case of “antisense: phosphorothioate p75^NTR antisense, 5′-ACCTGCCCTCCTCATTGCA-3′ (SEQ ID NO: 5) (DNA, all phosphorothioate, methylation of C not given here; further chemistry not fully specified)”, the uptake efficiency [3] is reported as greater than 96%, the “effect on motor neuron apoptosis induced by native NGF in the presence of nitric oxide” value ([1]; oligonucleotides 5 μM, NGF 100 ng/mL plus DETA-NONOate 10 μM, 48 h) is reported as “blocked” and the “effect on apoptosis induced by peroxynitrite-treated NGF” value ([1]; oligonucleotides 5 μM, NGF-ONOO^− 100 ng/mL, 48 h) is reported as “completely prevented”. For the same molecule, the “effect on loss of motor neurons induced by NGF-ONOO^− or NGF+NO” value ([1]; oligonucleotides added at plating, NGF-ONOO^− 100 ng/mL or NGF 100 ng/mL plus DETA-NONOate 10 μM, 48 h) was “completely blocked the loss of motor neurons”.

For “peroxynitrite treated-BSA: bovine serum albumin (Sigma) treated with peroxynitrite”, the “induction of motor neuron death” value ([1]; 48 h) was “did not induce motor neuron death”.

“peroxynitrite treated-FGF-1: FGF-1 (Sigma) treated with peroxynitrite” was tested, and the “induction of motor neuron death” value ([1]; 48 h) was “did not induce motor neuron death” and the “induction of motor neuron death” value ([1]; 48 h, listed as nitro-FGF-1) was “do not exert any apoptotic effect”.

With “peroxynitrite treated-FGF-2: FGF-2 (R&D Systems) treated with peroxynitrite” the “induction of motor neuron death” value ([1]; 48 h) was “did not induce motor neuron death” and the “induction of motor neuron death” value ([1]; 48 h, listed as nitro-FGF-2) was “do not exert any apoptotic effect”.

In the case of “peroxynitrite-treated NGF: NGF (Harlan) treated with peroxynitrite; nitrated (Tyr52, Trp99), elutes as dimer, tetramer and octamer”, the “neurite growth compared to NGF” value [4] is reported as “increased neurite growth”, the “peroxynitrite concentration at which NGF apoptotic activity reaches a plateau” value ([1]; NGF 10 ng/mL previously treated with indicated peroxynitrite concentrations, 48 h) is reported as “higher than 0.5 mM” and the motor neuron loss ([1]; at 1 pg/mL in the presence of nitric oxide (DETA-NONOate 10 μM), 48 h) is reported as 33%. The “concentration inducing motor neuron death (as low as)” value ([1]; cultures maintained with GDNF (1 ng/mL), no exogenous nitric oxide, survival 48 h after treatment) was 1 ng/mL, the “increase of potency to induce apoptosis of motor neurons” value ([1]; in the presence of nitric oxide, versus NGF) was 10,000 fold and the “apoptotic activity relative to unmodified native NGF” value ([1]; through p75^NTR) was 10,000 fold. For the same molecule, the “concentration significantly inducing motor neuron loss” value ([1]; together with nitric oxide (NGF-ONOO^−+NO)) was 1 pg/mL.

B1: TNM-treated NGF: NGF (Harlan) treated with 40-fold molar excess of tetranitromethane; nitrated at Tyr52 and Tyr79 (protein)
chain: SSTHPVFHMGEFSVCDSVSVWVGDKTTATDIKGKEVTVLAEVNINNSVFRQYFFETKCRASNPVESGCRGIDSKHWNSYCTTTHTFVKALTTDEKQAAWRFIRIDTACVCVLSRKATR
With B1 the “neurite growth compared to NGF” value [4] was “increased neurite growth” and the motor neuron loss ([1]; in the absence of nitric oxide, 48 h) was 32%.

B2: NGF: nerve growth factor, commercially available murine NGF (Harlan), non-nitrated (protein, listed as Mus musculus)
chain: SSTHPVFHMGEFSVCDSVSVWVGDKTTATDIKGKEVTVLAEVNINNSVFRQYFFETKCRASNPVESGCRGIDSKHWNSYCTTTHTFVKALTTDEKQAAWRFIRIDTACVCVLSRKATR
For B2, the “effect on motor neuron survival” value [1, 5] was “not sensitive”.

B3: NGF-ROA: control NGF treated with decomposed peroxynitrite (reverse order addition) (protein, UniProt P01139 122-241, looked up)
Beta-nerve growth factor: SSTHPVFHMGEFSVCDSVSVWVGDKTTATDIKGKEVTVLAEVNINNSVFRQYFFETKCRASNPVESGCRGIDSKHWNSYCTTTHTFVKALTTDEKQAAWRFIRIDTACVCVLSRKATRRG
modifications: Beta-nerve growth factor treated with decomposed peroxynitrite
For B3, the “effect on motor neuron survival” value [1, 5] was “did not affect motor neuron survival” and the “concentration significantly inducing motor neuron loss” value ([1]; in the presence of nitric oxide <50 nM from DETA-NONOate (10 μM), 48 h) was “higher than 10 ng/mL”.
